# Reference: PubChem BioAssay (NCI)
# “And” between values parts separate entries of the source, which are not always exact repeats. Equal values may be shown once.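 Tested at 5 concentrations; 48 h exposure; 96-well plates; endpoints linearly interpolated, else capped at highest concentration. GI50: concentration for 50% inhibition of growth. TGI: concentration producing complete growth inhibition.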
# What was measured:
# Assay in all cases: growth of human tumour cells (NCI), 48 h
# HCC-2998 colon = system: HCC-2998 colon
# MDA-MB-435 = system: MDA-MB-435
# NCI-H23 lung = system: NCI-H23 lung
# OVCAR-3 ovarian = system: OVCAR-3 ovarian
# OVCAR-4 ovarian = system: OVCAR-4 ovarian
# SF-295 CNS = system: SF-295 CNS
# SF-539 CNS = system: SF-539 CNS
# SR leukemia = system: SR leukemia
# TK-10 renal = system: TK-10 renal
# UACC-62 melanoma = system: UACC-62 melanoma
compound,measurement,setting,value
CCOC(=O)N1c2ccccc2C(C)=CC(C)C1C (stereo not given),TGI,HCC-2998 colon,> 100 µM
same,TGI,MDA-MB-435,15.8 µM
same,TGI,NCI-H23 lung,60.1 µM
same,TGI,OVCAR-3 ovarian,51.1 µM
same,TGI,OVCAR-4 ovarian,> 100 µM
same,TGI,SF-295 CNS,68.3 µM
same,TGI,SF-539 CNS,42.7 µM
same,TGI,SR leukemia,55.1 µM
same,TGI,TK-10 renal,51 µM
same,TGI,UACC-62 melanoma,> 100 µM
Cc1ccc(C2=CC(=O)/C(=C\C(=O)c3ccc(Br)cc3)O2)c(C)c1,TGI,HCC-2998 colon,25.4 µM
same,TGI,MDA-MB-435,38.7 µM
same,TGI,NCI-H23 lung,56.9 µM
same,TGI,OVCAR-3 ovarian,16.1 µM
same,TGI,OVCAR-4 ovarian,23.9 µM
same,TGI,SF-295 CNS,> 54.2 µM
same,TGI,SF-539 CNS,57.1 µM
same,TGI,SR leukemia,12.6 µM
same,TGI,TK-10 renal,15.9 µM
same,TGI,UACC-62 melanoma,22.7 µM
Cc1nc2ccc(NCCN(C)C)c3c(=O)c4ccccc4n1c23,TGI,HCC-2998 colon,16.7 µM
same,TGI,MDA-MB-435,16.1 µM
same,TGI,NCI-H23 lung,9.94 µM
same,TGI,OVCAR-3 ovarian,35.6 µM
same,TGI,OVCAR-4 ovarian,6.82 µM
same,TGI,SF-295 CNS,14.2 µM
same,TGI,SF-539 CNS,16 µM
same,TGI,SR leukemia,10.6 µM
same,TGI,TK-10 renal,38.5 µM
same,TGI,UACC-62 melanoma,20.2 µM
Cc1cccc2c(=O)c3c(O)cc(O)cc3n(C)c12,TGI,HCC-2998 colon,> 100 µM
same,TGI,MDA-MB-435,> 100 µM
same,TGI,NCI-H23 lung,> 100 µM
same,TGI,OVCAR-3 ovarian,> 100 µM
same,TGI,OVCAR-4 ovarian,> 100 µM
same,TGI,SF-295 CNS,> 100 µM
same,TGI,SF-539 CNS,> 100 µM
same,TGI,SR leukemia,> 100 µM
same,TGI,TK-10 renal,> 100 µM
same,TGI,UACC-62 melanoma,> 100 µM
CO[C@@]12C[C@H](CNC(=O)c3ccc[nH]3)O[C@@H]1NC(=O)N2,TGI,HCC-2998 colon,> 100 µM
same,TGI,MDA-MB-435,> 100 µM
same,TGI,NCI-H23 lung,> 100 µM
same,TGI,OVCAR-3 ovarian,> 100 µM
same,TGI,OVCAR-4 ovarian,> 100 µM
same,TGI,SF-295 CNS,> 100 µM
same,TGI,SF-539 CNS,> 100 µM
same,TGI,SR leukemia,> 100 µM
same,TGI,TK-10 renal,> 100 µM
same,TGI,UACC-62 melanoma,> 100 µM
CNC(=O)OCc1cnc([N+](=O)[O-])n1C,TGI,HCC-2998 colon,> 100 µM
same,TGI,MDA-MB-435,> 100 µM
same,TGI,NCI-H23 lung,> 100 µM
same,TGI,OVCAR-3 ovarian,> 100 µM
same,TGI,OVCAR-4 ovarian,> 100 µM
same,TGI,SF-295 CNS,> 100 µM
same,TGI,SF-539 CNS,> 100 µM
same,TGI,SR leukemia,> 100 µM
same,TGI,TK-10 renal,> 100 µM
O=C(C[N+]12CN3CN(CN(C3)C1)C2)c1ccc(-c2ccccc2)cc1,TGI,HCC-2998 colon,28.9 µM
same,TGI,MDA-MB-435,> 100 µM
same,TGI,NCI-H23 lung,53.5 µM
same,TGI,OVCAR-3 ovarian,78.6 µM
same,TGI,OVCAR-4 ovarian,> 100 µM
same,TGI,SF-295 CNS,43.6 µM
same,TGI,SR leukemia,12.2 µM
same,TGI,TK-10 renal,47.3 µM
same,TGI,UACC-62 melanoma,29.9 µM
S=C(NCc1ccccn1)N/N=C/c1ccccn1,TGI,HCC-2998 colon,> 100 µM
same,TGI,MDA-MB-435,> 100 µM
same,TGI,OVCAR-3 ovarian,> 100 µM
same,TGI,OVCAR-4 ovarian,> 30.5 µM
same,TGI,SF-295 CNS,> 96 µM
same,TGI,SF-539 CNS,0.396 µM
same,TGI,SR leukemia,0.0113 µM
same,TGI,TK-10 renal,> 100 µM
same,TGI,UACC-62 melanoma,4.12 µM
CC(=O)OCC1OC(OCCCOP(=O)(OCCC#N)OCC2OC(n3cnc4c(N)ncnc43)C(OC(=O)c3ccccc3)C2OC(=O)c2ccccc2)C(OC(C)=O)C(OC(C)=O)C1OC(C)=O (stereo not given),TGI,HCC-2998 colon,> 100 µM
same,TGI,MDA-MB-435,> 100 µM
same,TGI,NCI-H23 lung,> 100 µM
same,TGI,OVCAR-3 ovarian,> 100 µM
same,TGI,OVCAR-4 ovarian,> 100 µM
same,TGI,SF-295 CNS,> 100 µM
same,TGI,SF-539 CNS,> 100 µM
same,TGI,SR leukemia,> 100 µM
same,TGI,TK-10 renal,> 100 µM
same,TGI,UACC-62 melanoma,> 100 µM
CCCC(=O)Nc1cc(C(=O)N2C[C@H]3C[C@@]34C2=CC(=O)c2[nH]cc(C)c24)n(COC)c1,GI50,HCC-2998 colon,0.14 µM
same,TGI,HCC-2998 colon,0.361 µM and 0.336 µM
same,TGI,MDA-MB-435,1.6 µM and 0.537 µM
same,GI50,NCI-H23 lung,0.0328 µM
same,TGI,NCI-H23 lung,0.452 µM and 0.213 µM
same,TGI,OVCAR-3 ovarian,0.688 µM
same,GI50,OVCAR-4 ovarian,0.239 µM
same,TGI,OVCAR-4 ovarian,4.76 µM and 0.626 µM
same,GI50,SF-295 CNS,0.229 µM
same,GI50,SF-539 CNS,0.118 µM
same,TGI,SR leukemia,0.0236 µM
same,TGI,TK-10 renal,2.87 µM
same,GI50,UACC-62 melanoma,0.144 µM
same,TGI,UACC-62 melanoma,0.911 µM and 0.289 µM
CN(C)S(=O)(=O)c1ccc2[nH]c(O)c(C3=Nc4ccccc4C3=O)c2c1,TGI,HCC-2998 colon,> 100 µM
same,TGI,MDA-MB-435,> 100 µM
same,TGI,NCI-H23 lung,29.9 µM
same,TGI,OVCAR-3 ovarian,> 100 µM
same,TGI,OVCAR-4 ovarian,> 100 µM
same,TGI,SF-295 CNS,26.7 µM
same,TGI,SR leukemia,35.9 µM
same,TGI,TK-10 renal,40 µM
same,TGI,UACC-62 melanoma,34.9 µM
